Measurements as given in patent publication US20200163984A1, “USE OF ISOVALERYL SPIRAMYCIN I, II AND/OR III IN MANUFACTURING MEDICAMENT FOR TREATING AND/OR PREVENTING TUMOR, AND MEDICAMENT” (SHENYANG FUYANG PHARMACEUTICAL TECHNOLOGY CO., LTD., priority 2017, published 2020).
Converted amounts (≈) assume the structure as drawn.

Assays:
[1] = system: transplanted tumor of human gastric adenocarcinoma cell SGC7901; assay: SGC7901 transplanted tumor in nude mice
Description: (§1) Then cell concentration was adjusted to 1×10^7/ml with matrigel, then each nude mouse was inoculated subcutaneously with 0.2 ml of cells at its right armpit and recorded as the first day of inoculation. When the tumor grows to be greater than or equal to 100 mm^3, the mice were randomly divided into 11 groups with 6 mice in each group: a model group, a cyclophosphamide group, isovaleryl spiramycin I groups with doses of 25, 50 and 100 mg/kg, isovaleryl spiramycin II groups with doses of 25, 50 and 100 mg/kg, and isovaleryl spiramycin III groups with doses of 25, 50 and 100 mg/kg. Each group was continuously administered intragastrically for 30 days with a dose of 20 ml/kg. The mice were sacrificed the next day after drug withdrawal and the indicators were tested. The long diameter and short diameter of the tumor, and the body weight of each mouse were recorded every 3 days from drug administration to nude mouse sacrifice.
(§2) The body weight of the nude mice and the long diameter (a) and short diameter (b) of the transplanted tumor were measured every 3 days, and the tumor volume (v), relative tumor volume (RTV) and relative tumor proliferation rate (T/C) are calculated respectively according to the following formulas, wherein V=a×b^2/2; RTV=V/V0 (V0 is the tumor volume before administration, V is the tumor volume before sacrifice), and T/C (%)=treatment group RTV/model control group RTV×100%.
(§3) Each mouse was weighed and sacrificed. After the tumor was completely stripped off from the body of the mouse, the non-tumor tissues such as blood stains and fat were removed to weigh the tumor and calculate the tumor growth inhibition rate. The average tumor weight of each group of mice is used as an indicator of efficacy. Tumor growth inhibition rate (%)=(1−the average tumor weight of the treatment group/the average tumor weight of the model group)×100%.

[2] = system: transplanted tumor of human glioma cell U251; assay: U251 transplanted tumor in nude mice
Description: as §1, with “U251 cells in a logarithmic growth phase were taken and subjected to a trypan blue exclusion experiment showing that the cell viability was more than 95%, then the cells were subjected to trypsinization, centrifugation, and supernatant removal. Then” for “Then”
as §2, §3

[3] = system: human promyelocytic leukemia cell HL-60; conditions: HL-60, MTT, 48 h
Description: (§4) The purpose of the assay is to evaluate the in vitro cell proliferation inhibition or cytotoxic activity of a tested sample.
(§5) U937 and HL-60 were suspension cells, and cells in a logarithmic growth phase were selected and prepared into a 2×10^5/ml cell suspension by a RPMI 1640 culture medium containing 10% fetal bovine serum. And the cell suspension was inoculated in a 96-well culture plate, and each well was 50 μL and the 96-well culture plate was cultured at 37° C. and 5% CO2 for 24 hours. 50 μL of a culture medium containing different concentrations of the tested sample isovaleryl spiramycin I, isovaleryl spiramycin II, or isovaleryl spiramycin III was added in the experimental group, while a culture medium containing the same volume of solvent was added into the control group. Each group was set up with 3 parallel wells that were cultured at 37° C. and 5% CO2 for 48 h. And 10 μL of freshly prepared medium containing 5 mg/ml MTT was added into each well for continuous incubation for 4 hours at 37° C. The crystals were dissolved in 100 μL of a triple solution (SDS 10 g, 10 M HCl 0.1 mL, isobutanol 5 mL, diluted with distilled water to 100 mL), and incubated at 37° C. for 12 hours. The optical density value was measured at 492 nm with a microplate reader.
(§6) The inhibition rate of the medicament on tumor cell growth is calculated according to the following formula:
(§7) Tumor cell growth inhibition rate (%)=[A492 (negative control)−A492 (dosing group)]/A492 (negative control)×100%
(§8) And the half-inhibitory concentration (IC50) of the sample is determined therefrom.

[4] = system: human tissue lymphoma cell U937; conditions: U937, MTT, 48 h
Description: as §4, §5, §6, §7, §8

[5] = system: human thyroid cancer cell TPC-1; conditions: TPC-1, MTT
Description: as §4
(§9) Human breast cancer cells MCF-7 and MDA-MB-231, human hepatoma cells HepG2, human non-small cell lung cancer cells A549, human large cell lung cancer cells H460 and H1299, human renal clear cell adenocarcinoma cell 786-0, human renal cell adenocarcinoma cell 769-P, human glioma cell U251, human glioblastoma cell A172, human tissue lymphoma cell U937, human cervical cancer cell HeLa, human prostate cancer cell PC3, human pancreatic cancer cell PANC-1, human esophageal cancer cell TE-1, human gastric adenocarcinoma cell SGC7901, human colon cancer cell HT-29, human promyelocytic leukemia cell HL-60, human thyroid cancer cell TPC-1, and human bladder cancer cell T-24.
as §6, §7, §8

[6] = system: human bladder cancer cell T-24; conditions: T-24, MTT
Description: as §4, §9, §6, §7, §8

[7] = SGC7901, 12.5 mg/kg (low dose) i.g. 30 days
[8] = SGC7901, 25 mg/kg (medium dose) i.g. 30 days
[9] = SGC7901, 50 mg/kg (high dose) i.g. 30 days
[10] = U251, high dose (100 mg/kg in method) i.g. 30 days
[11] = U251, low dose (25 mg/kg in method) i.g. 30 days
[12] = U251, medium dose (50 mg/kg in method) i.g. 30 days

SMILES: CCC(=O)O[C@@H]1CC(=O)O[C@H](C)C/C=C/C=C/[C@H](O[C@H]2CC[C@H](N(C)C)[C@@H](C)O2)[C@H](C)C[C@H](CC=O)[C@H](O[C@@H]2O[C@H](C)[C@@H](O[C@H]3C[C@@](C)(O)[C@@H](OC(=O)CC(C)C)[C@H](C)O3)[C@H](N(C)C)[C@H]2O)[C@H]1OC [Isovaleryl spiramycin III, isovaleryl spiramycin III]
- Inhibition Rate (tumor growth inhibition rate) [1, 7]: 21.68%
- Relative Tumor Proliferation Rate (T/C) [1, 7]: 65.48%
- Relative Tumor Volume (RTV) [1, 7]: 5.52 ± 4.03
- Tumor Volume (d 1) [1, 7]: 186.22 ± 80.26 mm3
- Tumor Volume (d 30) [1, 7]: 1326.06 ± 96.10 mm3
- Tumor Weight [1, 7]: 1.23 ± 0.70 g
- Inhibition Rate (tumor growth inhibition rate) [1, 8]: 41.13%
- Relative Tumor Proliferation Rate (T/C) [1, 8]: 49.44%
- Relative Tumor Volume (RTV) [1, 8]: 3.77 ± 6.51
- Tumor Volume (d 1) [1, 8]: 274.12 ± 83.50 mm3
- Tumor Volume (d 30) [1, 8]: 1473.96 ± 798.75 mm3
- Tumor Weight [1, 8]: 0.92 ± 0.40 g
- Inhibition Rate (tumor growth inhibition rate) [1, 9]: 63.34%
- Relative Tumor Proliferation Rate (T/C) [1, 9]: 30.34%
- Relative Tumor Volume (RTV) [1, 9]: 3.66 ± 1.35
- Tumor Volume (d 1) [1, 9]: 295.39 ± 188.69 mm3
- Tumor Volume (d 30) [1, 9]: 974.67 ± 839.14 mm3
- Tumor Weight [1, 9]: 0.58 ± 0.52 g
- tumor volume and relative tumor volume compared with the model group ([1]; SGC7901, low, medium and high doses, P<0.05): significantly lower
- mouse weight compared with the model group ([1]; mouse, in vivo): no significant changes
- Relative Tumor Proliferation Rate (T/C) [2, 10]: 41.10%
- tumor growth inhibition rate [2, 10]: 59.56%
- Relative Tumor Proliferation Rate (T/C) [2, 11]: 68.16%
- tumor growth inhibition rate [2, 11]: 15.45%
- tumor volume and relative tumor volume compared with the model group ([2]; U251, low, medium and high doses, P<0.05): significantly lower
- Relative Tumor Proliferation Rate (T/C) [2, 12]: 54.34%
- tumor growth inhibition rate [2, 12]: 32.74%
- Inhibition Rate (%) ([2]; U251 nude mice, 25 mg/kg): 15.45%
- Relative Tumor Proliferation Rate (T/C) ([2]; U251 nude mice, 25 mg/kg): 68.16%
- Relative Tumor Volume (RTV) ([2]; U251 nude mice, 25 mg/kg): 13.47 ± 1.67
- Tumor Weight ([2]; U251 nude mice, 25 mg/kg): 1.17 ± 0.11 g
- Tumor Volume (mm3) (d 1) ([2]; U251 nude mice, 25 mg/kg, d1): 124.24 ± 10.18 mm3
- Tumor Volume (mm3) (d30) ([2]; U251 nude mice, 25 mg/kg, d30): 1413.41 ± 221.90 mm3
- Inhibition Rate (%) ([2]; U251 nude mice, 50 mg/kg): 32.74%
- Relative Tumor Proliferation Rate (T/C) ([2]; U251 nude mice, 50 mg/kg): 54.34%
- Relative Tumor Volume (RTV) ([2]; U251 nude mice, 50 mg/kg): 12.63 ± 1.27
- Tumor Weight ([2]; U251 nude mice, 50 mg/kg): 0.93 ± 0.12 g
- Tumor Volume (mm3) (d 1) ([2]; U251 nude mice, 50 mg/kg, d1): 121.24 ± 9.15 mm3
- Tumor Volume (mm3) (d30) ([2]; U251 nude mice, 50 mg/kg, d30): 1096.57 ± 173.49 mm3
- Inhibition Rate (%) ([2]; U251 nude mice, 100 mg/kg): 59.56%
- Relative Tumor Proliferation Rate (T/C) ([2]; U251 nude mice, 100 mg/kg): 41.10%
- Relative Tumor Volume (RTV) ([2]; U251 nude mice, 100 mg/kg): 10.96 ± 0.82
- Tumor Weight ([2]; U251 nude mice, 100 mg/kg): 0.56 ± 0.05 g
- Tumor Volume (mm3) (d 1) ([2]; U251 nude mice, 100 mg/kg, d1): 120.86 ± 6.34 mm3
- Tumor Volume (mm3) (d30) ([2]; U251 nude mice, 100 mg/kg, d30): 832.79 ± 182.98 mm3
- mouse weight compared with the model group ([2]; mouse, in vivo): no significant changes
- Body Weight (g) (d1) ([2]; mouse, in vivo, 25 mg/kg): 20.96 ± 0.58 g
- Body Weight (g) (d30) ([2]; mouse, in vivo, 25 mg/kg): 20.70 ± 0.51 g
- Body Weight (g) (d1) ([2]; mouse, in vivo, 50 mg/kg): 21.25 ± 0.53 g
- Body Weight (g) (d30) ([2]; mouse, in vivo, 50 mg/kg): 21.10 ± 0.60 g
- Body Weight (g) (d1) ([2]; mouse, in vivo, 100 mg/kg): 21.33 ± 0.62 g
- Body Weight (g) (d30) ([2]; mouse, in vivo, 100 mg/kg): 21.03 ± 0.55 g
- IC50 [3]: 21.38 ± 1.75 µg/mL (≈ 21.7 µM)
- IC50 [4]: 15.59 ± 0.08 µg/mL (≈ 15.9 µM)
- IC50 [5]: 29.72 ± 4.02 µg/mL (≈ 30.2 µM)
- IC50 [6]: 31.23 ± 1.47 µg/mL (≈ 31.8 µM)

SMILES: O=P1(N(CCCl)CCCl)NCCCO1 (stereo not drawn) [Cyclophosphamide, cyclophosphamide, reference compound]
- Body Weight (d 1) ([1]; SGC7901, 30 mg/kg i.g. 30 days): 22.63 ± 1.35 g
- Body Weight (d 30) ([1]; SGC7901, 30 mg/kg i.g. 30 days): 19.85 ± 0.72 g
- Inhibition Rate (tumor growth inhibition rate) ([1]; SGC7901, 30 mg/kg i.g. 30 days): 72.26%
- Relative Tumor Proliferation Rate (T/C) ([1]; SGC7901, 30 mg/kg i.g. 30 days): 30.71%
- Relative Tumor Volume (RTV) ([1]; SGC7901, 30 mg/kg i.g. 30 days): 4.27 ± 2.36
- Tumor Volume (d 1) ([1]; SGC7901, 30 mg/kg i.g. 30 days): 252.63 ± 74.57 mm3
- Tumor Volume (d 30) ([1]; SGC7901, 30 mg/kg i.g. 30 days): 865.27 ± 422.15 mm3
- Tumor Weight ([1]; SGC7901, 30 mg/kg i.g. 30 days): 0.44 ± 0.41 g
- Inhibition Rate (%) ([2]; U251 nude mice, 30 mg/kg): 69.31%
- Relative Tumor Proliferation Rate (T/C) ([2]; U251 nude mice, 30 mg/kg): 62.92%
- Relative Tumor Volume (RTV) ([2]; U251 nude mice, 30 mg/kg): 4.23 ± 0.95
- Tumor Weight ([2]; U251 nude mice, 30 mg/kg): 0.42 ± 0.06 g
- Body Weight (g) (d1) ([2]; U251 nude mice, 30 mg/kg, d1): 20.72 ± 0.48 g
- Tumor Volume (mm3) (d 1) ([2]; U251 nude mice, 30 mg/kg, d1): 119.00 ± 11.13 mm3
- Body Weight (g) (d30) ([2]; U251 nude mice, 30 mg/kg, d30): 19.40 ± 1.40 g
- Tumor Volume (mm3) (d30) ([2]; U251 nude mice, 30 mg/kg, d30): 504.56 ± 93.91 mm3
